Results published in patent US20200199102A1, “COMPOUNDS THAT PARTICIPATE IN COOPERATIVE BINDING AND USES THEREOF” (Revolution Medicines, Inc., priority 2017, published 2020).
Where a SMILES comes first, the peptide text is derived from it. [ ]: non-standard residue; d: D form. MeBmt = C/C=C/C[C@@H](C)[C@@H](O)[C@H](NC)C(=O)O; NMeY = CN[C@@H](Cc1ccc(O)cc1)C(=O)O; NMeF = CN[C@@H](Cc1ccccc1)C(=O)O; NMeI = CC[C@H](C)[C@H](NC)C(=O)O; NMeL = CN[C@@H](CC(C)C)C(=O)O; dNMeV = CN[C@@H](C(=O)O)C(C)C; Tle = CC(C)(C)[C@H](N)C(=O)O; NMeV = CN[C@H](C(=O)O)C(C)C; NMeA = CN[C@@H](C)C(=O)O; dNMeA = CN[C@H](C)C(=O)O; Abu = CC[C@H](N)C(=O)O; Sar = CNCC(=O)O

Biological target: T1, Cyclophilin A (Homo sapiens, UniProt P62937)
T1 construct: made in house
T1 sequence (P62937 whole entry, species assumed): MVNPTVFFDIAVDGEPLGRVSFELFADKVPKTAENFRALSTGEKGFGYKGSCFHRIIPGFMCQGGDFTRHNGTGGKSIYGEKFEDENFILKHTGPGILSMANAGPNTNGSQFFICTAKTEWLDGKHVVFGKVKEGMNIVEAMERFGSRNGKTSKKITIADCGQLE
Test: AlphaLISA inhibition of binding of biotinylated Cyclosporin A to FLAG tagged Cyclophilin A
Details: for % signal: AlphaLISA signal; for % signal / % inhibition of CsA binding to Cyclophilin A: test concentration not given; for IC50: read-out: IC50 value of CsA binding to Cyclophilin A
Text: The binding of compounds of the invention to Cyclophilin A can be determined using the following protocol.
This protocol utilizes Perkin Elmers AlphaLISA technology platform to detect cyclosporine analogues by measuring the inhibition of binding of biotinylated Cyclosporin A to FLAG tagged Cyclophilin A.
10×TBST Buffer (Boston BioProducts IBB-181), Biotinylated Cyclosporin A (in-house), FLAG tagged Cyclophilin A (in-house); anti-FLAG Donor beads (PerkinElmer AS103) and Streptavidin Acceptor beads (PerkinElmer AL125); Compounds in DMSO (in-house), Cyclosporin A (LC Labs Cat #C-6000).
Add 20 uL of 6 nM Biotinylated CsA working stock to each well of the 96-well plate. Add 1 uL of test compound (100% DMSO) to each well of the plate using the Janus MTD head and P20 tips (except control wells). Add 1 uL of DMSO to negative control wells and 1 uL of 500 uM Cyclosporin A solution to positive control wells. In the dark, add 20 uL of combined Donor/Acceptor beads to each well. Incubate in the dark for 30 minutes at room temperature. In the dark, add 10 uL of 25 nM Flag tagged CypA working stock to each well. Incubate in the dark for 60 minutes at room temperature. Protect plate from light until reading on Biotek Synergy2 Plate Reader; Alphalisa 96-well protocol (680 excitation/615 emission).

Row | SMILES | % signal | IC50 | % inhibition of CsA binding to Cyclophilin A
1 | C/C=C/C[C@@H](C)[C@@H](O)[C@H]1C(=O)N[C@@H](CC)C(=O)N(C)CC(=O)N(C)[C@@H](Cc2ccccc2)C(=O)N[C@@H](C(C)C)C(=O)N(C)[C@@H](CC(C)C)C(=O)N[C@@H](CC)C(=O)N[C@H](C)C(=O)N(C)[C@@H](CC(C)C)C(=O)N(C)[C@@H](CC(C)C)C(=O)N(C)[C@@H](C(C)C)C(=O)N1C [Compound C96] (cyclo([Abu][Sar][NMeF]V[NMeL][Abu][dA][NMeL][NMeL][NMeV][MeBmt])) | 5.00% | < 2000 nM | 95.00%
2 | C/C=C/C[C@@H](C)[C@@H](O)[C@H]1C(=O)N[C@@H](CC)C(=O)N(C)CC(=O)N(C)CC(=O)N[C@@H](CC(C)C)C(=O)N(C)[C@@H](CC(C)C)C(=O)N[C@@H](CC(C)C)C(=O)N[C@H](C)C(=O)N(C)[C@@H](CC(C)C)C(=O)N(C)[C@@H](CC(C)C)C(=O)N(C)[C@@H](C(C)C)C(=O)N1C [Compound C61] (cyclo([MeBmt][Abu][Sar][Sar]L[NMeL]L[dA][NMeL][NMeL][NMeV])) | 14.38% | < 2000 nM | 85.62%
3 | C/C=C/C[C@@H](C)[C@@H](O)[C@H]1C(=O)N[C@@H](CC)C(=O)N(C)CC(=O)N(C)[C@H](C(C)C)C(=O)N[C@@H](C(C)(C)C)C(=O)N(C)[C@@H](C)C(=O)N[C@@H](CC(C)C)C(=O)N[C@H](C)C(=O)N(C)[C@@H](CC(C)C)C(=O)N(C)[C@@H](CC(C)C)C(=O)N(C)[C@@H](C(C)C)C(=O)N1C [Compound C79] (cyclo([MeBmt][Abu][Sar][dNMeV][Tle][NMeA]L[dA][NMeL][NMeL][NMeV])) | 3.24% | < 2000 nM | 96.76%
4 | C/C=C/C[C@@H](C)[C@@H](O)[C@H]1C(=O)N[C@@H](CC)C(=O)N(C)CC(=O)N(C)[C@H](C)C(=O)N[C@@H](C)C(=O)N(C)CC(=O)N[C@@H](C)C(=O)N[C@H](C)C(=O)N(C)[C@@H](CC(C)C)C(=O)N(C)[C@@H](CC(C)C)C(=O)N(C)[C@@H](C(C)C)C(=O)N1C [Compound C19] (cyclo([MeBmt][Abu][Sar][dNMeA]A[Sar]A[dA][NMeL][NMeL][NMeV])) | 16.79% | < 2000 nM | 83.21%
5 | C/C=C/C[C@@H](C)[C@@H](O)[C@H]1C(=O)N[C@@H](CC)C(=O)N(C)CC(=O)N(C)[C@@H]([C@@H](C)CC)C(=O)N[C@@H](C(C)C)C(=O)N(C)CC(=O)N[C@@H](C)C(=O)N[C@H](C)C(=O)N(C)[C@@H](CC(C)C)C(=O)N(C)[C@@H](CC(C)C)C(=O)N(C)[C@@H](C(C)C)C(=O)N1C [Compound C25] (cyclo([MeBmt][Abu][Sar][NMeI]V[Sar]A[dA][NMeL][NMeL][NMeV])) | 0.37% | < 2000 nM | 
6 | C/C=C/C[C@@H](C)[C@@H](O)[C@H]1C(=O)N[C@@H](CC)C(=O)N(C)CC(=O)N(C)[C@H](C)C(=O)N[C@@H](CC(C)C)C(=O)N(C)[C@@H](CC(C)C)C(=O)N[C@@H](CC(C)C)C(=O)N[C@H](C)C(=O)N(C)[C@@H](CC(C)C)C(=O)N(C)[C@@H](CC(C)C)C(=O)N(C)[C@@H](C(C)C)C(=O)N1C [Compound C59] (cyclo([MeBmt][Abu][Sar][dNMeA]L[NMeL]L[dA][NMeL][NMeL][NMeV])) | 11.76% | < 2000 nM | 88.24%
7 | C/C=C/C[C@@H](C)[C@@H](O)[C@H]1C(=O)N[C@@H](CC)C(=O)N(C)CC(=O)N(C)[C@@H](CC(C)C)C(=O)N[C@@H](C(C)C)C(=O)N(C)CC(=O)N[C@@H](C)C(=O)N[C@H](C)C(=O)N(C)[C@@H](CC(C)C)C(=O)N(C)[C@@H](CC(C)C)C(=O)N(C)[C@@H](C(C)C)C(=O)N1C [Compound C30] | 0.06% | < 2000 nM | 99.94%
8 | C/C=C/C[C@@H](C)[C@@H](O)[C@H]1C(=O)N[C@@H](CC)C(=O)N(C)CC(=O)N(C)[C@@H](CC(C)C)C(=O)N[C@@H](C(C)C)C(=O)N(C)[C@@H](CC(C)C)C(=O)N[C@@H](CC(C)C)C(=O)N[C@H](C)C(=O)N(C)[C@@H](CC(C)C)C(=O)N(C)[C@@H](CC(C)C)C(=O)N(C)[C@@H](C(C)C)C(=O)N1C [Compound C50] | 6.06% | < 2000 nM | 93.94%
9 | C/C=C/C[C@@H](C)[C@@H](O)[C@H]1C(=O)N[C@@H](CC)C(=O)N(C)CC(=O)N(C)[C@@H](C)C(=O)N[C@@H](CC(C)C)C(=O)N(C)[C@@H](CC(C)C)C(=O)N[C@@H](CC(C)C)C(=O)N[C@H](C)C(=O)N(C)[C@@H](CC(C)C)C(=O)N(C)[C@@H](CC(C)C)C(=O)N(C)[C@@H](C(C)C)C(=O)N1C [Compound C58] (cyclo([MeBmt][Abu][Sar][NMeA]L[NMeL]L[dA][NMeL][NMeL][NMeV])) | 3.28% | < 2000 nM | 96.72%

Now from value to compound:

Row | % signal | IC50 | % inhibition of CsA binding to Cyclophilin A | SMILES
10 | 1.28% | < 2000 nM | 98.72% | C/C=C/C[C@@H](C)[C@@H](O)[C@H]1C(=O)N[C@@H](CC)C(=O)N(C)CC(=O)N(C)[C@@H]([C@@H](C)CC)C(=O)N[C@@H](C(C)C)C(=O)N(C)[C@@H](CC(C)C)C(=O)N[C@@H](CC)C(=O)N[C@H](C)C(=O)N(C)[C@@H](CC(C)C)C(=O)N(C)[C@@H](CC(C)C)C(=O)N(C)[C@@H](C(C)C)C(=O)N1C [Compound C93] (cyclo([Abu][Sar][NMeI]V[NMeL][Abu][dA][NMeL][NMeL][NMeV][MeBmt]))
11 | 3.71% | < 2000 nM | 96.29% | C/C=C/C[C@@H](C)[C@@H](O)[C@H]1C(=O)N[C@@H](CC)C(=O)N(C)CC(=O)N(C)[C@@H](C)C(=O)N[C@@H](C(C)C)C(=O)N(C)[C@@H](CC(C)C)C(=O)N[C@@H](CC)C(=O)N[C@H](C)C(=O)N(C)[C@@H](CC(C)C)C(=O)N(C)[C@@H](CC(C)C)C(=O)N(C)[C@@H](C(C)C)C(=O)N1C [Compound C94] (cyclo([Abu][Sar][NMeA]V[NMeL][Abu][dA][NMeL][NMeL][NMeV][MeBmt]))
12 | 7.40% | < 2000 nM | 92.60% | C/C=C/C[C@@H](C)[C@@H](O)[C@H]1C(=O)N[C@@H](CC)C(=O)N(C)CC(=O)N(C)[C@@H](Cc2ccc(O)cc2)C(=O)N[C@@H](C(C)C)C(=O)N(C)[C@@H](CC(C)C)C(=O)N[C@@H](CC(C)C)C(=O)N[C@H](C)C(=O)N(C)[C@@H](CC(C)C)C(=O)N(C)[C@@H](CC(C)C)C(=O)N(C)[C@@H](C(C)C)C(=O)N1C [Compound C52] (cyclo([MeBmt][Abu][Sar][NMeY]V[NMeL]L[dA][NMeL][NMeL][NMeV]))
13 | 2.70% | < 2000 nM | 97.30% | C/C=C/C[C@@H](C)[C@@H](O)[C@H]1C(=O)N[C@@H](CC)C(=O)N(C)CC(=O)N(C)CC(=O)N[C@@H](CC(C)C)C(=O)N(C)[C@@H](C)C(=O)N[C@@H](C)C(=O)N[C@H](C)C(=O)N(C)[C@@H](CC(C)C)C(=O)N(C)[C@@H](CC(C)C)C(=O)N(C)[C@@H](C(C)C)C(=O)N1C [Compound C13] (cyclo([MeBmt][Abu][Sar][Sar]L[NMeA]A[dA][NMeL][NMeL][NMeV]))
14 | 0.15% | < 2000 nM | 99.85% | C/C=C/C[C@@H](C)[C@@H](O)[C@H]1C(=O)N[C@@H](CC)C(=O)N(C)CC(=O)N(C)[C@@H](C(C)C)C(=O)N[C@@H](C(C)C)C(=O)N(C)[C@@H](CC(C)C)C(=O)N[C@@H](CC)C(=O)N[C@H](C)C(=O)N(C)[C@@H](CC(C)C)C(=O)N(C)[C@@H](CC(C)C)C(=O)N(C)[C@@H](C(C)C)C(=O)N1C [Compound C101] (cyclo([Abu][Sar][NMeV]V[NMeL][Abu][dA][NMeL][NMeL][NMeV][MeBmt]))
15 | 0.27% | < 2000 nM | 99.73% | C/C=C/C[C@@H](C)[C@@H](O)[C@H]1C(=O)N[C@@H](CC)C(=O)N(C)CC(=O)N(C)[C@@H](C(C)C)C(=O)N[C@@H](CC(C)C)C(=O)N(C)[C@@H](CC(C)C)C(=O)N[C@@H](CC(C)C)C(=O)N[C@H](C)C(=O)N(C)[C@@H](CC(C)C)C(=O)N(C)[C@@H](CC(C)C)C(=O)N(C)[C@@H](C(C)C)C(=O)N1C [Compound C65] (cyclo([MeBmt][Abu][Sar][NMeV]L[NMeL]L[dA][NMeL][NMeL][NMeV]))
16 | 0.15% | < 2000 nM | 99.85% | C/C=C/C[C@@H](C)[C@@H](O)[C@H]1C(=O)N[C@@H](CC)C(=O)N(C)CC(=O)N(C)[C@@H]([C@@H](C)CC)C(=O)N[C@@H](CC(C)C)C(=O)N(C)[C@@H](CC(C)C)C(=O)N[C@@H](CC(C)C)C(=O)N[C@H](C)C(=O)N(C)[C@@H](CC(C)C)C(=O)N(C)[C@@H](CC(C)C)C(=O)N(C)[C@@H](C(C)C)C(=O)N1C [Compound C57] (cyclo([MeBmt][Abu][Sar][NMeI]L[NMeL]L[dA][NMeL][NMeL][NMeV]))
17 | 5.97% | < 2000 nM | 94.03% | C/C=C/C[C@@H](C)[C@@H](O)[C@H]1C(=O)N[C@@H](CC)C(=O)N(C)CC(=O)N(C)[C@@H](CC(C)C)C(=O)N[C@@H](C)C(=O)N(C)CC(=O)N[C@@H](C)C(=O)N[C@H](C)C(=O)N(C)[C@@H](CC(C)C)C(=O)N(C)[C@@H](CC(C)C)C(=O)N(C)[C@@H](C(C)C)C(=O)N1C [Compound C22] (cyclo([MeBmt][Abu][Sar][NMeL]A[Sar]A[dA][NMeL][NMeL][NMeV]))
